Data published in patent US20090304813A1, “VIRUCIDAL COMPOSITIONS AND USES” (priority 2006, published 2009).

How the values were obtained:
[1] = Tox controls of the oral treatment study in mice (Table 3); conditions: 75 mg/kg/day p.o., bid × 5 beg −4 h; initial weight vs 18 h after final treatment
[2] = system: Influenza A/Duck/MN/1525/81 (H5N1); set-up: species or system BALB/c mice; conditions: mouse, in vivo

Row | Structure (SMILES) | Tox Controls Mean Host Weight Change [1] [g] | Number of surviving mice per group at day 19 [2] | surviving mice per group at day 19, percent [2]
1 | NC(=O)c1ncn([C@@H]2O[C@H](CO)[C@@H](O)[C@H]2O)n1 [Ribavirin] | -0.8 |  | 
2 | CCOC(=O)C1=C[C@@H](OC(CC)CC)[C@H](NC(C)=O)[C@@H](N)C1 [Tamiflu ™, oseltamivir phosphate] |  | 10/10 [100%] | 10/10 [100%]
